“And” between values parts separate entries of the source, which are not always exact repeats. Identical values can stand only once. Like-named read-outs stand apart in the source and are kept apart here.
Key:
[1] = test system: vincristine (VCR)-resistant mouse leukemia (P388/VCR) cells; assay: Antitumor agent potentiating effect in vincristine-resistant tumor bearing mouse (Example 11, i.p. 5 days); assay type: in vivo
Experimental: (§1) The potentiating effect of the antitumor agent (T/V) % was determined according to the formula shown below. Verapamil was employed as the positive Control compound. […] In the Tables, Compound 1 is the compound obtained in Example 1, Compound 2 that obtained in Example 2, Compound 3 that obtained in Example 3, Compound 4 that obtained in Example 4, and Compound 5 that obtained in Example 5. [formula]

rat rectum smooth muscle = assay: Inhibitory effects on potassium contracture in rat rectum smooth muscle; assay type: cell-based; details: 5 min, K contraction 5.6 to 56.0 mM, read-out: Inhibition ratio; for inhibition at 0.1 µM: 10^-7 M; for inhibition at 0.01 µM: 10^-8 M
Experimental: Rat rectum (about 1.5 cm) was isolated and suspended in a Magnus tube. A Locke solution was employed as the nutrient solution, and a contraction of the intestinum rectum was caused by changing the potassium (K) concentration of this solution from 5.6 mmol (mM) to 56.0 mM. This contraction was a contraction through a membrane dependent Ca-channel mediated contraction based on depolarization by a K concentration change. The contraction was recorded by an FD-transducer and polygraph. The compounds of the present invention were permitted to act 5 minutes before changing the K concentration, and simultaneously with changing the K concentration. […] A judgement was made 5 minutes after changing the K concentration, and the difference in contraction before the concentration change was indicated as an inhibition % value. Verapamil and nicardipine were employed as the positive control compound .

ICR mice = assay: acute toxicity test; details: mouse, in vivo;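 note: intraperitoneal dosing with deaths counted over 10 days of observation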
Experimental: Male 6-week-old ICR mice were divided into groups of 2 to 5 mice per group. […] The drugs to be tested were administered in varying amounts of 250 to 2000 mg/kg to 5 or 7 groups (a geometrical series of .cent.2), at a dose volume of 10 ml/kg. In the Table, the respective compounds have the same meanings as described above.

[2] = test system: spontaneously hypertensive rats (SHR); details: rat, in vivo, ip
Experimental: The systolic blood pressure was measured by using spontaneously hypertensive rats (SHR), which are a model of hypertension when examine the hypotensive activities of the compounds of the present invention and the positive Control compound. The rats were warmed for 5 minutes in a warming box at 55° C., and their blood pressure then measured by a tail cuff plethysmograph. The compounds of the present invention were administered singly and intraperitoneally at a dose of 100 mg/kg and the positive Control compound was administered singly and intraperitoneally at a dose of 10 mg/kg. […] Blood pressure measurements were taken before administration and 60 minutes after administration. Nicardipine was employed as the positive Control compound.

[3] = test system: vincristine (VCR)-resistant mouse leukemia (P388/VCR) cells; assay: Antitumor agent potentiating effect in vincristine-resistant tumor bearing mouse (Example 12, i.p.); assay type: in vivo
Experimental: as §1
The potentiating effect of the antitumor agent (T/V) % was determined as described above (Example 11). Nicardipine was employed as the positive Control compound, and was administered intraperitoneally for 10 days. […] In the Tables, Compound 6 is the compound obtained in Example 6, Compound 7 that obtained in Example 7, and Compound 8 that obtained in Example 8.

[4] = test system: vincristine (VCR)-resistant mouse leukemia (P388/VCR) cells; assay: Antitumor agent potentiating effect in vincristine-resistant tumor bearing mouse (Example 13, oral compound, 10 days); assay type: in vivo
[5] = test system: antitumor drug sensitive cells P388/S of mouse P388 leukemia cells; assay: VCR alone in mice bearing drug sensitive P388/S leukemia (Example 13, Table 8(B)); assay type: in vivo
Experimental: The compounds of this invention were administered orally after the treatment described above, and VCR was administered as described above. The progress thereof was observed and the survival days for respective animals were determined to obtain the survival ratio (T/C) % relative to the Control. The antitumor agent potentiating effect (T/V) % was determined as described above. In the Table, Compound 8 is the compound obtained in Example 8.

[6] = compound 100 mg/kg i.p. + VCR 30 μg/kg i.p.
[7] = compound alone 100 mg/kg i.p., no VCR
[8] = compound 50 mg/kg/day oral + VCR 100 μg/kg/day i.p.
[9] = compound 100 mg/kg/day oral + VCR 10 μg/kg/day i.p.
[10] = compound 100 mg/kg/day oral + VCR 30 μg/kg/day i.p.
[11] = compound 100 mg/kg/day oral + VCR 100 μg/kg/day i.p.
[12] = compound 200 mg/kg/day oral + VCR 10 μg/kg/day i.p.
[13] = compound 200 mg/kg/day oral + VCR 30 μg/kg/day i.p.
[14] = compound 200 mg/kg/day oral + VCR 100 μg/kg/day i.p.
[15] = compound 300 mg/kg/day oral + VCR 10 μg/kg/day i.p.
[16] = compound 300 mg/kg/day oral + VCR 30 μg/kg/day i.p.
[17] = positive control 50 mg/kg i.p., 10 days + VCR 30 μg/kg
[18] = positive control 75 mg/kg i.p., 10 days + VCR 30 μg/kg
[19] = positive control alone 50 mg/kg i.p., 10 days
[20] = positive control alone 75 mg/kg i.p., 10 days
[21] = VCR 30 μg/kg i.p. alone (reference = 100)
[22] = positive control 30 mg/kg + VCR 30 μg/kg
[23] = positive control 60 mg/kg + VCR 30 μg/kg

## CC1=C(C(=O)OCc2ccccn2)C(C2=COCCO2)C(C(=O)OCc2ccccn2)=C(C)N1 [Compound 1, bis(2-pyridylmethyl) 4-[2-(5,6-dihydro-p-dioxinyl)]-2,6-dimethyl-1,4-dihydropyridine-3,5-dicarboxylate]
[1]; [6]
  Potentiating effect T/V: 116%
  Survival Days (Mean ± SD): 14.5 ± 1.6 days
  Survival ratio T/C: 121%
[1]; [7]
  Survival Days (Mean ± SD): 12.2 ± 0.8 days
  Survival ratio T/C: 102%
Rat rectum smooth muscle
  inhibition at 0.1 µM: 11.2%
ICR mice
  Mortality: 0/2

## CC1=C(C(=O)OCCc2ccccn2)C(C2=COCCO2)C(C(=O)OCCc2ccccn2)=C(C)N1 [Compound 4, bis[2-(2-pyridyl)ethyl]4-[2-(5,6-dihydro-p-dioxinyl)]-2,6-dimethyl-1,4-dihydropyridine-3,5-dicarboxylate]
[1]; [6]
  Potentiating effect T/V: 121%
  Survival Days (Mean ± SD): 13.7 ± 1.6 days
  Survival ratio T/C: 126%
Rat rectum smooth muscle
  inhibition at 0.1 µM: 5.2%
  inhibition at 0.01 µM: -6.9%

## CCc1ccc(COC(=O)C2=C(C)NC(C)=C(C(=O)OCc3ccc(CC)cn3)C2C2=COCCO2)nc1 [Compound 5, bis[2-(5-ethylpyridyl)methyl]4-[2-(5,6-dihydro-p-dioxinyl)-]2,6-dimethyl-1,4-dihydropyridine-3,5-dicarboxylate]
[1]; [6]
  Potentiating effect T/V: 131%
  Survival Days (Mean ± SD): 14.8 ± 1.2 days
  Survival ratio T/C: 136%
ICR mice
  Mortality: 0/2 and 0/3
[2]; 100 mg/kg
  Blood pressure change: -34 mmHg
  Systolic Blood Pressure 60 minutes after administration: 187 mmHg

## CC1=C(C(=O)OCc2ccccn2)C(C2=CSCCS2)C(C(=O)OCc2ccccn2)=C(C)N1 [Compound 6, bis(2-pyridylmethyl) 4-[2-(5,6-dihydro-1,4-dithiinyl)]-2,6-dimethyl-1,4-dihydropyridine-3,5-dicarboxylate]
[3]; [6]
  Potentiating effect T/V: 125%
  Survival Days (Mean ± SD): 14.2 ± 1.2 days
  Survival ratio T/C: 138%
[3]; [7]
  Survival Days (Mean ± SD): 10.8 ± 0.8 days
  Survival ratio T/C: 105%
ICR mice
  Mortality: 0/2 and 0/3
[2]; 100 mg/kg
  Blood pressure change: -30 mmHg
  Systolic Blood Pressure 60 minutes after administration: 191 mmHg

## CC1=C(C(=O)OCc2cccnc2)C(C2=CSCCS2)C(C(=O)OCc2cccnc2)=C(C)N1 [Compound 7, bis(3-pyridylmethyl) 4-[2-(5,6-dihydro-1,4-dithiinyl)]-2,6-dimethyl-1,4-dihydropyridine-3,5-dicarboxylate]
[3]; [6]
  Potentiating effect T/V: 118%
  Survival Days (Mean ± SD): 13.5 ± 0.8 days
  Survival ratio T/C: 131%
[3]; [7]
  Survival Days (Mean ± SD): 11.0 ± 0.6 days
  Survival ratio T/C: 107%
[2]; 100 mg/kg
  Blood pressure change: -38 mmHg
  Systolic Blood Pressure 60 minutes after administration: 189 mmHg

## CC1=C(C(=O)OCc2ccncc2)C(C2=C(C)SCCS2)C(C(=O)OCc2ccncc2)=C(C)N1 [Compound 8, bis(4-pyridylmethyl) 4-[2-(3-methyl-5,6-dihydro-1,4-dithiinyl)-]2,6-dimethyl-1,-4-dihydropyridine-3,5-dicarboxylate]
[3]; [6]
  Potentiating effect T/V: 138%
  Survival Days (Mean ± SD): 13.5 ± 0.8 days
  Survival ratio T/C: 138%
[3]; [7]
  Survival Days (Mean ± SD): 9.7 ± 1.0 days
  Survival ratio T/C: 99%
[4]; combination with VCR, P388/VCR, Table 8
  life prolonging effect compared with VCR alone in P388/S: has an effect comparable to the prolonging effect when VCR is administered alone to P388/S which is a vincristine-sensitive clone (Table 8), thus completely overcoming the VCR resistance
[4]; [8]
  Potentiating effect T/V: 120%
  Survival Days (Mean ± SD): 12.5 ± 1.6 days
  Survival ratio T/C: 132%
[4]; [9]
  Potentiating effect T/V: 120%
  Survival Days (Mean ± SD): 11.3 ± 0.8 days
  Survival ratio T/C: 119%
[4]; [10]
  Potentiating effect T/V: 118%
  Survival Days (Mean ± SD): 12.2 ± 1.2 days
  Survival ratio T/C: 128%
[4]; [11]
  Potentiating effect T/V: 130%
  Survival Days (Mean ± SD): 13.5 ± 1.4 days
  Survival ratio T/C: 142%
[4]; [12]
  Potentiating effect T/V: 131%
  Survival Days (Mean ± SD): 12.3 ± 0.5 days
  Survival ratio T/C: 129%
[4]; [13]
  Potentiating effect T/V: 139%
  Survival Days (Mean ± SD): 14.3 ± 1.0 days
  Survival ratio T/C: 151%
[4]; [14]
  Potentiating effect T/V: 156%
  Survival Days (Mean ± SD): 16.2 ± 2.4 days
  Survival ratio T/C: 171%
[4]; [15]
  Potentiating effect T/V: 144%
  Survival Days (Mean ± SD): 13.5 ± 0.5 days
  Survival ratio T/C: 142%
[4]; [16]
  Potentiating effect T/V: 149%
  Survival Days (Mean ± SD): 15.3 ± 1.5 days
  Survival ratio T/C: 161%
[2]; 100 mg/kg
  Blood pressure change: -11 mmHg
  Systolic Blood Pressure 60 minutes after administration: 187 mmHg

## COC(=O)C1=C(C)NC(C)=C(C(=O)OCCN(C)Cc2ccccc2)C1c1cccc([N+](=O)[O-])c1 (stereo not drawn) [Nicardipine, reference compound]
[3]; [17]
  Potentiating effect T/V: 112%
  Survival Days (Mean ± SD): 12.3 ± 0.8 days
  Survival ratio T/C: 128%
[3]; [18]
  Potentiating effect T/V: 125%
  Survival Days (Mean ± SD): 13.7 ± 1.2 days
  Survival ratio T/C: 143%
[3]; [19]
  Survival Days (Mean ± SD): 10.6 ± 1.5 days
  Survival ratio T/C: 110%
[3]; [20]
  Survival Days (Mean ± SD): 11.2 ± 1.1 days
  Survival ratio T/C: 117%
Rat rectum smooth muscle
  inhibition at 0.01 µM: 73.1%
[2]; 10 mg/kg
  Blood pressure change: -122 mmHg
  Systolic Blood Pressure 60 minutes after administration: 86 mmHg

## CC[C@]1(O)C[C@H]2CN(CCc3c([nH]c4ccccc34)[C@@](C(=O)OC)(c3cc4c(cc3OC)N(C=O)[C@H]3[C@@](O)(C(=O)OC)[C@H](OC(C)=O)[C@]5(CC)C=CCN6CC[C@]43[C@@H]65)C2)C1 [VCR, vincristine, reference compound]
[1]; VCR 30 μg/kg i.p. alone
  Survival Days (Mean ± SD): 12.5 ± 1.4 days and 10.5 ± 0.8 days and 11.3 ± 1.0 days and 11.8 ± 1.3 days
  Survival ratio T/C: 104%
[1]; [21]
  Potentiating effect T/V: 100%
[3]; VCR 30 μg/kg i.p. alone
  Survival Days (Mean ± SD): 11.4 ± 1.0 days and 9.8 ± 0.8 days and 11.0 ± 1.8 days
  Survival ratio T/C: 100%
[3]; [21]
  Potentiating effect T/V: 100%
[4]; VCR 10 μg/kg/day i.p. alone
  Survival Days (Mean ± SD): 9.4 ± 0.7 days
  Survival ratio T/C: 99%
[4]; VCR 10 μg/kg/day i.p. alone (reference = 100)
  Potentiating effect T/V: 100%
[4]; VCR 30 μg/kg/day i.p. alone
  Survival Days (Mean ± SD): 10.3 ± 1.5 days
[4]; VCR 30 μg/kg/day i.p. alone (reference = 100)
  Potentiating effect T/V: 100%
[4]; VCR 100 μg/kg/day i.p. alone
  Survival Days (Mean ± SD): 10.4 ± 0.9 days
[4]; VCR 100 μg/kg/day i.p. alone (reference = 100)
  Potentiating effect T/V: 100%
[5]; VCR 10 μg/kg/day alone
  Survival Days (Mean ± SD): 11.8 ± 0.8 days
  Survival ratio T/C: 144%
[5]; VCR 30 μg/kg/day alone
  Survival Days (Mean ± SD): 13.3 ± 0.9 days
  Survival ratio T/C: 162%
[5]; VCR 100 μg/kg/day alone
  Survival Days (Mean ± SD): 15.2 ± 0.8 days
  Survival ratio T/C: 185%

## COc1ccc(CCN(C)CCCC(C#N)(c2ccc(OC)c(OC)c2)C(C)C)cc1OC (stereo not drawn) [Verapamil, reference compound]
[1]; [22]
  Potentiating effect T/V: 121%
  Survival Days (Mean ± SD): 14.3 ± 1.6 days
  Survival ratio T/C: 134%
[1]; [23]
  Potentiating effect T/V: 130%
  Survival Days (Mean ± SD): 15.3 ± 0.5 days
  Survival ratio T/C: 143%
Rat rectum smooth muscle
  inhibition at 0.1 µM: 50.2%
  inhibition at 0.01 µM: 13.6%

— patent US4985558A, “1,4-dihydropyridine derivative” (Nikken Chemicals Co., Ltd., priority 1988, dated 1991)
